The values below come from PMC6767909 (Journal of medicinal chemistry, 2019).

The target in data set [1] is T1, human GIVA cPLA2 (Homo sapiens, UniProt P47712).
T1 sequence (P47712 1-749): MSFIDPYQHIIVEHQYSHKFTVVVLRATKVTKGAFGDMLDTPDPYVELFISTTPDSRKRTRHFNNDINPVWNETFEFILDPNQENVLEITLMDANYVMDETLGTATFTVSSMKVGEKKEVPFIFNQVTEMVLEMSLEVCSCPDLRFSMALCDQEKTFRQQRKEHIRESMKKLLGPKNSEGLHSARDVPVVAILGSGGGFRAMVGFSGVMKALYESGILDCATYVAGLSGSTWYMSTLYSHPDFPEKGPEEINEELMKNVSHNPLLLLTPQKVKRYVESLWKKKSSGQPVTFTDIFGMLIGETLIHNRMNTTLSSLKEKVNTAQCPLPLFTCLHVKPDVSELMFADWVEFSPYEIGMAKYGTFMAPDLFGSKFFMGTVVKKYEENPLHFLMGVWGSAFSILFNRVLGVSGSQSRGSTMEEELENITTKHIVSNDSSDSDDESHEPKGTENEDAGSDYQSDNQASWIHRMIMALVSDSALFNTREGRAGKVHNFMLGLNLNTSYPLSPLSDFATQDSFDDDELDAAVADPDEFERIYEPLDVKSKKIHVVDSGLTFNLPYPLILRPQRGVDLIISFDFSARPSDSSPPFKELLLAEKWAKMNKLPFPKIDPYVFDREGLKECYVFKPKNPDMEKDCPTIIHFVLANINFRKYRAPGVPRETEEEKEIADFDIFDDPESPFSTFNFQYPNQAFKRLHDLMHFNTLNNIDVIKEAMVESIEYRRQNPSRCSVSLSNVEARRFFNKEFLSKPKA
As to the kind of experiment: lipidomics-based mixed micelle assay, GIVA cPLA2. The class given is biochemical. The note with it: for GIVA cPLA2 XI(50): separated trans/cis diastereomers, lipidomics-based assay.

Data set [2] concerns the target T2, recombinant human GVIA iPLA2 (Homo sapiens, UniProt O60733).
T2 sequence (O60733 1-806): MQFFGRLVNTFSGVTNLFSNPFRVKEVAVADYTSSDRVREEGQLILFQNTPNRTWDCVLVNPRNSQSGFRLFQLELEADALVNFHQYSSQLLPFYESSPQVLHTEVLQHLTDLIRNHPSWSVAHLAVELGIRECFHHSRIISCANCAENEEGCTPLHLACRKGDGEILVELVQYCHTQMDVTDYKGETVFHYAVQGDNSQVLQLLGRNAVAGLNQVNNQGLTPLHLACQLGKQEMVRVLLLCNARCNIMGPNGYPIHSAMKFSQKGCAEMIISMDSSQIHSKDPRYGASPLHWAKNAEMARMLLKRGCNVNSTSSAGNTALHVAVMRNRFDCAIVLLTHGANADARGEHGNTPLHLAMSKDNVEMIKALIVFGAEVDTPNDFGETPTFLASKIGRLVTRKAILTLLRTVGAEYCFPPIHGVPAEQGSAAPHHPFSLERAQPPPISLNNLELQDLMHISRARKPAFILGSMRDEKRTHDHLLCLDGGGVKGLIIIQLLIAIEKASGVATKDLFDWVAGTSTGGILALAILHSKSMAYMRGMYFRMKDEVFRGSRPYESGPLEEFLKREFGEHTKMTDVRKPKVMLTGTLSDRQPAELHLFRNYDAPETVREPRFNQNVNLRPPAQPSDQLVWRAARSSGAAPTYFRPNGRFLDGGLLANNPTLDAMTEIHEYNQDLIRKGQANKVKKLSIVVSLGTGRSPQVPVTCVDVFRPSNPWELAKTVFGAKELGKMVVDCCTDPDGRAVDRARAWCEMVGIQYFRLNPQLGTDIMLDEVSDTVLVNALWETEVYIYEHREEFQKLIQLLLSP
Nature of the data set: lipidomics-based mixed micelle assay, GVIA iPLA2. The class given is biochemical.

Data set [3] relates to INS-1 cells. Format: cell-based.
The target of data set [4] is T2, recombinant human GVIA iPLA2. The note with it: cited from earlier work; for GVIA iPLA2 XI(50): radioactivity-based assay.
The subject of data set [5] is β-cell. The note with it: cited from earlier work.

Read-outs that look alike come from different tables or passages of the source.

As for `CCC[C@@H]1OC(=O)[C@@H]1CCCc1ccccc1` (racemic) [cis-9d, cis-(±)-3-(3-Phenylpropyl)-4-propyloxetan-2-one], in data set [1], 950 nM corresponded to half-maximal inhibition (IC50) and the “GIVA cPLA2 XI(50)” value amounted to 0.0019 mole fraction.
As for `CCC[C@@H]1OC(=O)[C@@H]1CCCc1ccc(OC)cc1` (racemic) [cis-9f, cis-(±)-3-(3-(4-Methoxyphenyl)propyl)-4-propyloxetan-2-one], the IC50 in data set [1] stood at 20 nM; in data set [2], 20000 nM. Moreover, the “times more potent for GIVA cPLA2 than for GVIA iPLA2” value in data set [1] (GIVA cPLA2 over GVIA iPLA2) is given as around 1000 times. Besides, in data set [1], the “GIVA cPLA2 XI(50)” value is listed as 0.00004 mole fraction.
In the case of `CCC[C@@H]1OC(=O)[C@@H]1CCCCc1ccc2ccccc2c1` (racemic) [cis-9j, cis-(±)-3-(4-(Naphthalen-2-yl)butyl)-4-propyloxetan-2-one], in data set [2], the IC50 amounted to 1000 nM.
For `CCC[C@H]1OC(=O)[C@@H]1CCCc1ccccc1` (racemic) [trans-9d, trans-(±)-3-(3-Phenylpropyl)-4-propyloxetan-2-one], the IC50 in data set [2] amounted to 95 nM.
With `CCC[C@H]1OC(=O)[C@@H]1CCCc1ccc2ccccc2c1` (racemic) [trans-9e, trans-(±)-3-(3-(Naphthalen-2-yl)propyl)-4-propyloxetan-2-one], the IC50 in data set [2] was determined as 150 nM.
`CCC[C@H]1OC(=O)[C@@H]1CCCc1ccc(OC)cc1` (racemic) [trans-9f, trans-(±)-3-(3-(4-Methoxyphenyl)propyl)-4-propyloxetan-2-one]: the IC50 in data set [2] turned out to be 95 nM.
For `CCC[C@H]1OC(=O)[C@@H]1CCCCc1ccccc1` (racemic) [trans-9k, trans-(±)-3-(4-Phenylbutyl)-4-propyloxetan-2-one], the “GIVA cPLA2 XI(50)” value in data set [1] is 0.042 mole fraction. Moreover, the “inhibition (decrease) of cytokine-induced β-cell apoptosis” value in data set [3] (0.10 μM, co-treatment with IL-1β + IFNγ, 16 h) is “minimal and non-significant effect”. In addition, the “cytotoxicity on continuous exposure, compound alone” value in data set [3] (0.10 or 1.0 μM, no cytokines) was “not cytotoxic”. Further, the “times more active against GVIA iPLA2 than GIVA cPLA2 (selectivity)” value in data set [2] (GVIA iPLA2 over GIVA cPLA2) is on record as 22,000 times. For the same compound, in data set [2] (compared with fluoroketone FKGK18), the “potency on GVIA iPLA2 relative to FKGK18” value is listed as “a hundred times more potent”.
Take `O=C(CCCCc1ccccc1)C(F)(F)C(F)(F)F` [2a]: the “GVIA iPLA2 XI(50)” value in data set [4] (listed as FKGK11) is recorded as 0.0014 mole fraction.
Turning to `COc1ccc(CCCCC(=O)C(F)(F)C(F)(F)F)cc1` [2b], the “GVIA iPLA2 XI(50)” value in data set [4] (listed as GK187) is listed as 0.0001 mole fraction.
Take `O=C(CCCCc1ccc2ccccc2c1)C(F)(F)F` [compound 3]: the “inhibition of β-cell apoptosis” value in data set [5] is listed as “able to inhibit β-cell apoptosis”. Besides, in data set [4], the “times more potent for GVIA iPLA2 than for GIVA cPLA2” value was 195 times and the “times more potent for GVIA iPLA2 than for GV sPLA2” value is above 455 times.
Turning to `COc1ccc(CCSCC(=O)c2noc(C(C)(C)C)n2)cc1` [compound 4], in data set [4], the “GVIA iPLA2 XI(50)” value is recorded as 0.0057 mole fraction.

The term IC50 denotes the concentration that inhibits the measured activity by half.
